Source: ChEMBL document CHEMBL4011620, “Design and Discovery of N-(2-Methyl-5'-morpholino-6'-((tetrahydro-2H-pyran-4-yl)oxy)-[3,3'-bipyridin]-5-yl)-3-(trifluoromethyl)benzamide (RAF709): A Potent, Selective, and Efficacious RAF Inhibitor Targeting RAS Mutant Cancers” (J Med Chem, 2017)
Calls of active or inactive are those of the source. The calls are words filed in the database; no cut-off is given here.

Key:
[1] = Clearance in rat at 3 mg/kg, iv or 10 mg/kg, po; format: ADME, organism-based; settings: in vivo
[2] = Metabolic stability in dog plasma after 3 hrs; format: ADME, cell-free, Canis lupus familiaris; settings: read-out: Stability
Mus musculus [3] = experiment: Toxicity in nude mouse xenografted with human Calu6 cells assessed as mortality at 10 to 200 mg/kg/day, po administered for 15 days starting on day 12 post tumor implantation; format: organism-based; settings: in vivo, 360 h
Plasma [4] = experiment: Plasma concentration in mouse xenografted with human Calu6 cells at 10 mg/kg, po administered as single dose measured at 24 hrs post dose by LC-MS analysis; format: ADME, organism-based; settings: in vivo, BLD = below limit of detection
[5] = Oral bioavailability in dog at 1 mg/kg; format: ADME, organism-based, Canis lupus familiaris; settings: in vivo
Calu-6 [6] = experiment: Antitumor activity against human Calu6 cells xenografted in nude mouse assessed as tumor regression at 200 mg/kg/day, po administered for 15 days starting on day 12 post tumor implantation measured on day 27 relative to control; format: functional
[7] = AUC (infinity) in dog at 1 mg/kg, po; format: ADME, organism-based, Canis lupus familiaris; parameters: dose 1 mg/kg, time infinity, route oral; settings: in vivo
[8] = Metabolic stability in mouse plasma after 3 hrs; format: ADME, cell-free; settings: read-out: Stability
[9] = Cmax in rat at 10 mg/kg, po; format: ADME, organism-based; parameters: dose 10 mg/kg, route oral; settings: in vivo
Mus musculus [10] = experiment: Toxicity in nude mouse xenografted with human Calu6 cells assessed as body weight loss at 10 to 200 mg/kg/day, po administered for 15 days starting on day 12 post tumor implantation measured twice per week of compound dosing; format: organism-based; settings: in vivo, 360 h
[11] = Volume of distribution at steady state in dog at 0.3 mg/kg, iv or 1 mg/kg, po; format: ADME, organism-based, Canis lupus familiaris; settings: in vivo, read-out: Vdss
[12] = AUC (infinity) in rat at 10 mg/kg, po; format: ADME, organism-based; parameters: dose 10 mg/kg, route oral, time infinity; settings: in vivo
Mus musculus [13] = experiment: In vivo inhibition of ERK phosphorylation at Thr202/Tyr204 and Thr185/Tyr187 in po dosed mouse xenografted with human Calu6 cells administered as single dose measured after 1 to 24 hrs post dose; format: functional, organism-based
Mus musculus [14] = experiment: In vivo inhibition of ERK phosphorylation at Thr202/Tyr204 and Thr185/Tyr187 in mouse xenografted with human Calu6 cells at 10 mg/kg, po administered as single dose measured at 24 hrs post dose; format: functional, organism-based
Calu-6 [15] = experiment: Antitumor activity against human Calu6 cells xenografted in nude mouse assessed as effect on tumor volume at 30 mg/kg/day, po administered for 15 days starting on day 12 post tumor implantation measured on day 27 relative to control; format: functional
[16] = molecular target: Serine/threonine-protein kinase B-raf (Homo sapiens, UniProt P15056); experiment: Binding affinity to human BRAF (429 to 741 residues) expressed in mammalian expression system at 1 uM by kinome scan assay relative to control
[17] = Protein binding in mouse plasma; format: ADME, cell-free; settings: read-out: PPB (converted)
[18] = molecular target: T1, Discoidin domain-containing receptor 2 (Homo sapiens) (UniProt Q16832); experiment: Binding affinity to human DDR2 (555 to 855 residues) expressed in mammalian expression system at 1 uM by kinome scan assay relative to control
T1 sequence (whole entry): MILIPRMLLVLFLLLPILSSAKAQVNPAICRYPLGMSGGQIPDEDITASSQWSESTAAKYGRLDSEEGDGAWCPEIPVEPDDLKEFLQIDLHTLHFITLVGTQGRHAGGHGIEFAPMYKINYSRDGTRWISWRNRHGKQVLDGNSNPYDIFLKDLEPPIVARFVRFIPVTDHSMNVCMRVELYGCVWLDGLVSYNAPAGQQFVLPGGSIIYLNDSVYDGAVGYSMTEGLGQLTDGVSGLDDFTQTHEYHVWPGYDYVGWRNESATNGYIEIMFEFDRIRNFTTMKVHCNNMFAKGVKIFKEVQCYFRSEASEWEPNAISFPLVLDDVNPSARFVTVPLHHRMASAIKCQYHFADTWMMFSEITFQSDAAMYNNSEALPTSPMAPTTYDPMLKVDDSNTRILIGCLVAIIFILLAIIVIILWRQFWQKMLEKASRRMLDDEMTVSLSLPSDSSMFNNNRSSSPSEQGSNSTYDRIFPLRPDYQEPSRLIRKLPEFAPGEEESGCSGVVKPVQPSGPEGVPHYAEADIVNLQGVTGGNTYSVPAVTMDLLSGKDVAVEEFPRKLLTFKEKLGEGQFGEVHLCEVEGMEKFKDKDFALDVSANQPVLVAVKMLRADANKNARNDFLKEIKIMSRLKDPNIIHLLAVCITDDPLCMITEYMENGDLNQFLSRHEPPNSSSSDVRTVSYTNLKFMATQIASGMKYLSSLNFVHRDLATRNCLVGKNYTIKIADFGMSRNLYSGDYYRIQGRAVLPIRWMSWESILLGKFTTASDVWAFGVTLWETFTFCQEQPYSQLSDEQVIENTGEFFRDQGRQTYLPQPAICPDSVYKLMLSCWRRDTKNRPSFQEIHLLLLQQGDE

[19] = Metabolic stability in human plasma after 3 hrs; format: ADME, cell-free; settings: read-out: Stability
[20] = Protein binding in human plasma; format: ADME, cell-free; settings: read-out: PPB (converted)
[21] = Metabolic stability in rat plasma after 3 hrs; format: ADME, cell-free; settings: read-out: Stability
[22] = Oral bioavailability in mouse at 3 mg/kg; format: ADME, organism-based; settings: in vivo
[23] = Cmax in dog at 1 mg/kg, po; format: ADME, organism-based, Canis lupus familiaris; parameters: dose 1 mg/kg, route oral; settings: in vivo
Calu-6 [24] = experiment: Antitumor activity against human Calu6 cells xenografted in nude mouse assessed as effect on tumor volume at 10 mg/kg/day, po administered for 15 days starting on day 12 post tumor implantation measured on day 27 relative to control; format: functional
[25] = Clearance in mouse at 1 mg/kg, iv or 3 mg/kg, po; format: ADME, organism-based; settings: in vivo
[26] = tested on: Serine/threonine-protein kinase B-raf (Homo sapiens), P15056 [V600E]; experiment: Binding affinity to human BRAF V600E mutant (429 to 741 residues) expressed in mammalian expression system at 1 uM by kinome scan assay relative to control
[27] = molecular target: Tyrosine-protein kinase FRK (Homo sapiens) (UniProt P42685); experiment: Binding affinity to human FRK (215 to 503 residues) expressed in mammalian expression system at 1 uM by kinome scan assay relative to control
[28] = tested on: RAF proto-oncogene serine/threonine-protein kinase (Homo sapiens), P04049 [Y340E,Y341E]
Mus musculus [29] = experiment: In vivo inhibition of ERK1/2 phosphorylation at Thr202/Tyr204 and Thr185/Tyr187 in mouse xenografted with human Calu6 cells at 200 mg/kg, po administered as single dose measured up to 24 hrs post dose; format: functional; settings: Calu-6, po
PC-3 = experiment: Antitumor activity against human PC3 cells xenografted in nude mouse assessed as reduction in tumor volume at 200 mg/kg/day, po dosed on day 12 continued until day 25 post implantation; format: functional, organism-based
Plasma [30] = experiment: Plasma concentration in po dosed mouse xenografted with human Calu6 cells administered as single dose measured after 1 to 24 hrs post dose by LC-MS analysis; format: ADME, organism-based; settings: in vivo
[31] = Apparent permeability across apical to basolateral side in human Caco2 cells at pH 7.4 by LC/MS/MS analysis; settings: Caco-2, pH 7.4
[32] = AUC (infinity) in mouse at 3 mg/kg, po; format: ADME, organism-based; parameters: dose 3 mg/kg, route oral, time infinity; settings: in vivo

Serine/threonine-protein kinase B-raf, sequence (P15056 whole entry, the tested form may be a part): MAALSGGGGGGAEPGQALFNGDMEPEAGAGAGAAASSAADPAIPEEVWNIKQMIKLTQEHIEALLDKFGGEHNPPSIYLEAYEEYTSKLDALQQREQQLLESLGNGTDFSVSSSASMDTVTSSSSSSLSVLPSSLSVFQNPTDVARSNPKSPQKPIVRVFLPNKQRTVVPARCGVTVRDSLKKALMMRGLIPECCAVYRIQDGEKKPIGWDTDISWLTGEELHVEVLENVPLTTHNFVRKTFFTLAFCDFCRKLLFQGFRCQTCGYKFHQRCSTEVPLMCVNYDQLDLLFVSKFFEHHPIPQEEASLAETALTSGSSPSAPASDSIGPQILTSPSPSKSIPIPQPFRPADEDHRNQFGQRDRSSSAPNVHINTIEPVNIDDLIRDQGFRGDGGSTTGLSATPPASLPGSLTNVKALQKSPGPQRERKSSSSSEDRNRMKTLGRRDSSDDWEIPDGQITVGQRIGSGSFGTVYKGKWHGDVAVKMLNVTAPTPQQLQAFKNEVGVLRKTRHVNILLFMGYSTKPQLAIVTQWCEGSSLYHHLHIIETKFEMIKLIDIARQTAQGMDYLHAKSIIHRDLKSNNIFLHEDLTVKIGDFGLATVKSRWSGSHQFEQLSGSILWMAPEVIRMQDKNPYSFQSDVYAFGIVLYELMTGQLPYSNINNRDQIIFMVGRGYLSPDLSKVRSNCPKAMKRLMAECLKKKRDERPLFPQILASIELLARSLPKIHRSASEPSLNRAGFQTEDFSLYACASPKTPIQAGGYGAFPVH
Serine/threonine-protein kinase B-raf (Homo sapiens), P15056 [V600E], sequence (P15056 whole entry V600E, the tested form may be a part): as the sequence (P15056 whole entry, the tested form may be a part) above, with V600E counted along it
Tyrosine-protein kinase FRK (Homo sapiens), sequence (P42685 whole entry, the tested form may be a part): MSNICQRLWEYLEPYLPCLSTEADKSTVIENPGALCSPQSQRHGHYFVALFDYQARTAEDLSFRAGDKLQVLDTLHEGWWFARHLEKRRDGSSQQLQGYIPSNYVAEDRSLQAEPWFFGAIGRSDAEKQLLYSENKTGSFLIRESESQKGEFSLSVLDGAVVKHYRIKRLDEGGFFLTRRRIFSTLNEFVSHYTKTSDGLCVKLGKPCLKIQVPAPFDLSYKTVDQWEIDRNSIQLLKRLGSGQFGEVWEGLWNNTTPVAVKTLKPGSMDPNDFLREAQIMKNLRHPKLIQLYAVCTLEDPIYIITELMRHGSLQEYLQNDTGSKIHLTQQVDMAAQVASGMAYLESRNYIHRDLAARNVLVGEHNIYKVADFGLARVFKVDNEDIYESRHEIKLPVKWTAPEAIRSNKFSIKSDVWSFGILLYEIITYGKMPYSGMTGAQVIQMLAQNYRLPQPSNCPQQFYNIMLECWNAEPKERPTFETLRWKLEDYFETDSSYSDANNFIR

## Cc1ncc(NC(=O)c2cccc(C(F)(F)F)c2)cc1-c1cnc(OC2CCOCC2)c(N2CCOCC2)c1
[1]
  clearance: 50 mL/min/kg
[2]
  remaining at 3 h: 95%
Mus musculus [3]
  Activity: Non-Toxic
Plasma [4]
  Cp: Bld
[5]
  bioavailability: 48%
Calu-6 [6]
  Activity: 92%
[7]
  AUC(0-inf): 1 µM·h
[8]
  remaining at 3 h: 82%
[9]
  Cmax: 800 nM
Mus musculus [10]
  Activity: Non-Toxic
[11]
  Vd: 3.1 L/kg
[12]
  AUC(0-inf): 1.5 µM·h
Mus musculus [13]
  inhibition: Dose-dependent effect
Mus musculus [14]
  inhibition: inactive
Calu-6 [15]
  T/C: 46%
[16]
  Activity: > 99%
[17]
  fraction unbound: 0.02
[18]
  Activity: 86%
[19]
  remaining at 3 h: 101%
[20]
  fraction unbound: 0.02
[21]
  remaining at 3 h: 85%
[22]
  bioavailability: 68%
[23]
  Cmax: 500 nM
Calu-6 [24]
  T/C: 92%
[25]
  clearance: 35 mL/min/kg
[26]
  Activity: > 99%
[27]
  Activity: 92%
[28]
  T1/2: > 6.5 h
Mus musculus [29]
  inhibition in vivo at 200 mg/kg: ≥ 70%
PC-3
  Activity: inactive
Plasma [30]
  Drug uptake: Dose-dependent effect
[31]
  Papp A→B: 15 ×10⁻⁶ cm/s
[32]
  AUC(0-inf): 1.7 µM·h
